Measured values: US5124083A, “3-substituted and 3,3-disubstituted 4-oxoretinoic acids and their esters” (Southern Research Institute, priority 1990, dated 1992)
Where two headings read alike, the source gives them in different places.

Columns and labels:
ornithine decarboxylase = experiment: Ornithine decarboxylase assay (reduction of TPA-induced ODC activity in mouse skin); format: in vivo; details: for Ornithine Decarboxylase Activity, Average % of Control Group: TPA-induced ODC, mouse skin, nanomoles of carbon dioxide per milligram of protein per half hour; for ODC activity as % of the ODC activity in the control mice, summary range: TPA-induced, summary of Table III in text
Excerpt: A bioassay in vivo for activity in the prevention of carcinogen-induced cancer is based on the reduction by a retinoid of the amount of ornithine decarboxylase (ODC) induced in mouse skin by the tumor promoter 12-O-tetradecanoylphorbol 13-acetate (TPA). Verma et al. (Cancer Research, Vol. 38, pages 793-801, 1978), reported that "application of the potent tumor-promoting agent 12-O-tetradecanoylphorbol 13-acetate (TPA) to mouse skin leads to a rapid and transient induction of epidermal ornithine decarboxylase activity". They state, further, that "inhibition of this enzyme activity by retinoids may be a simple and rapid in vivo test for assessing the potential prophylactic activity of new synthetic retinoids". All of the tested 4-oxoretinoid analogues reduced TPA-induced ODC activity. The compounds of Examples 2-4, 8, 11, 17, 18, and 20-23 reduced ODC activity to 22-47% of the ODC activity in the control mice and are, therefore, very active in this assay for cancer chemopreventive activity.
Ornithine Decarboxylase Assay
Assays for the reduction by 4-oxoretinoids of ornithine decarboxylase activity induced by 12-O-tetradecanoylphorbol 13-acetate (TPA) were performed by the procedure of Verma et al., Cancer Research, Vol. 38, pages 793-801 (1978).

skin papillomas = experiment: Mouse antipapilloma assay (DMBA-TPA skin papillomas); format: in vivo; parameters: Average Number of Skin Papillomas/Mouse as % of No. of Papillomas/Mouse in the DMBA-TPA Control Group of Mice: concentration or dose not given beside the values; details: for Average Number of Skin Papillomas/Mouse as % of No. of Papillomas/Mouse in the DMBA-TPA Control Group of Mice: DMBA-initiated, TPA-promoted mouse skin; for Reduction of papilloma formation, summary range: range over the six most active retinoids; for Papilloma formation as % of papilloma formation in untreated control mice, summary range: summary of Table IV
Excerpt: Application of the carcinogen DMBA to mouse skin followed by application of the tumor promoter TPA causes the formation of papillomas. Certain retinoids applied to the same area of mouse skin reduce or prevent papilloma formation (e.g. H. Mayer, W. Bollag, R. Hanni, and R. Ruegg, Experientia, Vol 34, pages 1105-1119, 1978; R. K. Boutwell and A. K. Verma, Pure and Applied Chemistry, Vol. 51, pages 857-866, 1979). The antipapilloma assay is a direct test of the capability of a retinoid to prevent tumor formation in vivo. It has been used to select retinoids for clinical development. The tested retinoids reduced papilloma formation to 27-83% of papilloma formation in untreated control mice. […] The number of papillomas in mice treated with either of these six retinoids was 27-40% of the number of papillomas on untreated mice; or, differently expressed, papilloma formation was reduced by 60-73%.
In this assay, tumors are initiated in mice by applying the carcinogen DMBA to the skin of mice and subsequently applying the promoter TPA. The method is that of Verma et al., Cancer Research, Vol. 39, pages 419-425, 1979.

[1] = tested on: F9 Embryonal Carcinoma Cells; experiment: Induction of differentiation of F9 embryonal carcinoma cells (plasminogen activator release); format: cell-based; details: Mus musculus, 96 h, by release of plasminogen activator, 4 days, read-out: Differentiation of F9 Embryonal Carcinoma Cells ED50
Procedure: Induction of differentiation of cancer cells is a potential mode of cancer chemoprevention. […] Elevated release of plasminogen activator by F9 cells in the presence of retinoids is a marker for differentiation. Induction of differentiation of F9 cells by several of the retinoids of this invention was evaluated, and the results are summarized in Table I (Example 24) as values of ED50. All of the tested 4-oxoretionoic acid analogues induce differentiation at low concentrations (ED50 =[…] -10^-10 molar) and, therefore, are very effective inducers of differentiation of mouse F9 embryonal carcinoma cells. […] Under the conditions of this assay, ester derivatives might be hydrolyzed partially to the carboxylic acids.
Assay for Induction of Differentiation of Cancer Cells to Normal Cells
Evaluation of the differentiation potential of 4-oxoretinoids was carried out with an embryonal carcinoma cell line, F9. Elevation of plasminogen activator release by F9 cells in the presence of retinoids is a marker for inducing differentiation into parietal endoderm (Strickland and Mahdavi, loc. cit.; Strickland and Sawey, loc. cit.). F9 cells were grown at a density of 1×10^5 cells/mL in the presence or absence of […], 10^-8, 10^-9, 10^-10, and 10^-11 or molar retinoids for 4 days. Aliquots (20 μL) of the harvest fluid were mixed with 0.13 μM plasminogen, 0.3 mM H-D-Val-Leu-Lys-p-nitroaniline (a synthetic substrate of plasmin), 0.1% Tween 80, and 25 μg of fibrinogen fragments in a final volume of 0.2 mL of Tris-HCl, pH 7.5. After incubation for 4 hours at 25° C., the generation of p-nitroaniline was measured by absorbance at 405 nm. The average absorbencies from duplicate experiments were plotted (semilog plots) versus concentration (molarity). The ED50 values were determined by finding the midpoint between the maximal and minimal absorbance values.
Induction of Differentiation of Cancer Cells
^a ED50 is the molar concentration of the retinoid that causes
50% induction of differentiation of the carcinoma cells as measured by th
release of plasminogen activator.

[2] = molar concentration causing 50% induction of differentiation

| Compound | Ornithine Decarboxylase Activity, Average % of Control Group (ornithine decarboxylase) | Average Number of Skin Papillomas/Mouse as % of No. of Papillomas/Mouse in the DMBA-TPA Control Group of Mice (skin papillomas) [%] | EC50 [1, 2] [nM] | ODC activity as % of the ODC activity in the control mice, summary range (ornithine decarboxylase) | Reduction of papilloma formation, summary range (skin papillomas) | Papilloma formation as % of papilloma formation in untreated control mice, summary range (skin papillomas) | EC50 ([1]; average of two determinations, 50% induction of differentiation) [nM] |
| --- | --- | --- | --- | --- | --- | --- | --- |
| COC(=O)/C=C(C)/C=C/C=C(C)/C=C/C1=C(C)C(=O)C(CC=Cc2ccccc2)CC1(C)C (stereo not shown) [Example 3, Methyl 3-Cinnamyl-4-oxoretinoate] | 31 % of Control Group | – | – | – | – | – | – |
| CCC1CC(C)(C)C(/C=C/C(C)=C/C=C/C(C)=C/C(=O)OC)=C(C)C1=O (stereo not shown) [Example 4, Methyl 3-Ethyl-4-oxoretinoate] | 31 % of Control Group | 83 | – | – | – | – | – |
| C=CCC1CC(C)(C)C(/C=C/C(C)=C/C=C/C(C)=C/C(=O)OC)=C(C)C1=O (stereo not shown) [Example 7, Methyl 4-Oxo-3-(2-propenyl)retinoate] | 56 % of Control Group | 42 | – | – | – | – | – |
| C#CCC1CC(C)(C)C(/C=C/C(C)=C/C=C/C(C)=C/C(=O)OC)=C(C)C1=O (stereo not shown) [Example 8, Methyl 4-Oxo-3-(2-propynyl)retinoate] | 35 % of Control Group | 40 | 1.5 | 22-47 % of the ODC activity in the control mice | 60-73% | 27-40% | – |
| CCC1CC(C)(C)C(/C=C/C(C)=C/C=C/C(C)=C/C(=O)O)=C(C)C1=O (stereo not shown) [Example 18, 3-Ethyl-4Oxoretionoic Acid] | 40 % of Control Group | 57 | 5 | 22-47 % of the ODC activity in the control mice | – | – | – |
| C=CCC1CC(C)(C)C(/C=C/C(C)=C/C=C/C(C)=C/C(=O)O)=C(C)C1=O (stereo not shown) [Example 19, 4-Oxo-3-(2-propenyl)retinoic Acid] | 68 % of Control Group | 47 | 0.7 | – | – | – | – |
| CC1=C(/C=C/C(C)=C/C=C/C(C)=C/C(=O)O)C(C)(C)CC(CC=Cc2ccccc2)C1=O (stereo not shown) [Example 22, 3-Cinnamyl-4-oxoretinoic Acid] | 23 % of Control Group | 39 | 3.5 | – | 60-73% | 27-40% | – |
| CC1=C(/C=C/C(C)=C/C=C/C(C)=C/C(=O)O)C(C)(C)CC(C)(C)C1=O [Example 23, 3.3-Dimethyl-4-Oxoretinoic Acid] | 26 % of Control Group | 27 | – | – | 60-73% | 27-40% | 0.23 |
